Assay: Cytotoxic effects in vitro on normal lung cells
Assay type: cell-based
Details: IMR-90 normal lung fibroblast cells; human normal lung fibroblast (IMR-90); read-out: IC50, cytotoxicity towards human normal cells IMR-90

C#Cc1cccc(Nc2ncnc3cc(OCCOC)c(OCCOC)cc23)c1 [Erlotinib, erlotinib, reference compound]
IC50: 39.6 ± 1.15 µM

— publication PMC10408569, “Recruitment of hexahydroquinoline as anticancer scaffold targeting inhibition of wild and mutants EGFR (EGFR^WT, EGFR^T790M, and EGFR^L858R)” (Journal of Enzyme Inhibition and Medicinal Chemistry, 2023)
